“And” between values parts separate entries of the source, which are not always exact repeats. Equal entries are not always repeated.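 Where inhibition never reached the appropriate level, the endpoint shown equals the highest concentration tested. Otherwise, values were interpolated linearly from a five-concentration, 48-hour dose response in 96-well plates. GI50 marks 50% less growth.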 The source made the active and inactive calls. Cut-off read from the data, not from the text of the source: active = GI50 up to about 1.1 µM and inactive = higher.
How the values were obtained:
Experiment in all cases: NCI tumour cell line growth inhibition, 48 h
[1] = system: 786-0
[2] = system: A498
[3] = system: A549
[4] = system: ACHN
[5] = system: CAKI-1
[6] = system: CCRF-CEM
[7] = system: DLD-1
[8] = system: DMS-114
[9] = system: DMS-273
[10] = system: EKVX
[11] = system: HCC 2998
[12] = system: HCT-116
[13] = system: HCT-15
[14] = system: HL-60
[15] = system: HOP-18
[16] = system: HOP-62
[17] = system: HOP-92
[18] = system: HT-29
[19] = system: IGROV-1
[20] = system: K562
[21] = system: KM-20L2
[22] = system: KM12
[23] = system: LOX IMVI
[24] = system: LXFL 529
[25] = system: M14
[26] = system: M19-MEL
[27] = system: MOLT-4
[28] = system: Malme-3M
[29] = system: NCI-H226
[30] = system: NCI-H23
[31] = system: NCI-H460
[32] = system: OVCAR-3
[33] = system: OVCAR-4
[34] = system: OVCAR-5
[35] = system: OVCAR-8
[36] = system: RPMI-8226
[37] = system: RXF 393
[38] = system: SF-268
[39] = system: SF-295
[40] = system: SF-539
[41] = system: SK-MEL-28
[42] = system: SK-MEL-2
[43] = system: SK-MEL-5
[44] = system: SN12C
[45] = system: SNB-19
[46] = system: SNB-75
[47] = system: SNB-78
[48] = system: SR
[49] = system: SW-620
[50] = system: TK-10
[51] = system: UACC-257
[52] = system: UACC-62
[53] = system: UO-31
[54] = system: XF498
[55] = system: BT-549
[56] = system: Hs-578T
[57] = system: MDA-MB-435
[58] = system: MDA-N
[59] = system: NCI/ADR-RES
[60] = system: PC-3
[61] = system: SK-OV-3

Measured: GI50

COc1ccc(/C=C2\CCC(CCN3CCOCC3)C2=O)cc1 (stereo unspecified)
inactive: [1] > 100 µM | [2] > 100 µM | [3] > 100 µM | [4] > 100 µM | [5] > 100 µM | [6] > 100 µM | [7] > 100 µM | [8] > 100 µM | [9] > 100 µM | [10] > 100 µM | [11] > 100 µM | [12] > 100 µM | [14] > 100 µM | [15] > 100 µM | [16] > 100 µM | [17] > 100 µM | [18] > 100 µM | [19] > 100 µM | [20] > 100 µM | [21] > 100 µM | [22] > 100 µM | [23] > 100 µM | [24] > 100 µM | [25] > 100 µM | [26] > 100 µM | [27] > 100 µM | [28] > 100 µM | [29] > 100 µM | [30] > 100 µM | [31] > 100 µM | [32] > 100 µM | [33] > 100 µM | [34] > 100 µM | [35] > 100 µM | [36] > 100 µM | [37] > 100 µM | [38] > 100 µM | [39] > 100 µM | [40] > 100 µM | [41] > 100 µM | [42] > 100 µM | [43] > 100 µM | [44] > 100 µM | [45] > 100 µM | [46] > 100 µM | [47] > 100 µM | [48] > 100 µM | [49] > 100 µM | [50] > 100 µM | [51] > 100 µM | [52] > 100 µM | [53] > 100 µM | [54] > 100 µM
> 100 µM: [13]

COC1=C(N)C(=O)c2nc(-c3nc(C(=O)O)c(C)c(-c4ccc(OC)c(OC)c4O)c3N)ccc2C1=O [STREPTONIGRIN]
active: [2] 8.11 nM and 12.6 nM | [3] 0.00505 µM | [55] 0.00526 µM | [6] < 10 nM and 6.01 nM | [7] 0.0131 µM | [8] < 0.01 µM | [9] < 0.01 µM | [11] 5.65 nM and < 10.9 nM | [12] 0.00619 µM | [15] < 0.01 µM | [56] < 0.01 µM | [21] 10 nM and 19 nM | [23] 0.00581 µM | [24] 0.01 µM | [26] 0.01 µM | [57] < 10 nM and 8.59 nM | [58] 0.00792 µM | [29] < 10 nM and 5.73 nM | [59] 0.00893 µM | [60] 0.0071 µM | [43] < 10 nM and 5.81 nM | [61] 0.00826 µM | [44] 0.00785 µM | [47] 19.4 nM and < 10 nM | [49] 6.03 nM and 10 nM | [51] 7.87 nM and < 10.7 nM | [54] < 0.01 µM

From ChEMBL document CHEMBL1201862, “PubChem BioAssay data set” (2004)
